{
  "source": "patent US5053070A",
  "about": "“Pyrimidine derivatives, preparation processes thereof, herbicide containing the same, and herbicidal compositions containing the same along with other active ingredient” (Mitsui Toatsu Chemicals, Incorporated, priority 1988, dated 1991)",
  "key": {"[1]": {"tested_on": "ALS (acetolactate syntase)", "assay": "ALS enzyme assay (Test 1)", "format": "biochemical, pea", "settings": "1,000 ppm (0.5 mg/0.5 ml)", "in_short": "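Partially purified ALS from dark-grown pea and barnyardgrass seedlings incubated 1 h at 30° C with pyruvate, TPP, MgCl2 and FAD. Compounds tested at 1,000 ppm (0.5 mg/0.5 ml). Acetoin formed detected colorimetrically at 525 nm via creatine/α-naphthol, relative to blank and acid-stopped controls.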"}, "johnsongrass [2]": {"tested_on": "johnsongrass", "assay": "Upland foliar application test (Test 3)", "format": "in vivo", "settings": "30 g ai/a, foliar spray at 2-3 leaves, 30th day", "in_short": "(§1)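 Foliar post-emergence spray: diluted emulsifiable formulation applied at 5 l/are by pressure ULV sprayer once plants in upland-soil greenhouse pots reached 2-3 leaves. Degree of weed damage and crop injury rated on day 30 post-application.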"}, "foxtail meadow [3]": {"tested_on": "foxtail meadow", "assay": "Upland foliar application test (Test 3)", "format": "in vivo", "settings": "30 g ai/a, foliar spray at 2-3 leaves, 30th day", "in_short": "as §1"}, "redroot pigweed [4]": {"tested_on": "redroot pigweed", "assay": "Upland foliar application test (Test 3)", "format": "in vivo", "settings": "30 g ai/a, foliar spray at 2-3 leaves, 30th day", "in_short": "as §1"}, "large crabgrass [5]": {"tested_on": "large crabgrass", "assay": "Upland foliar application test (Test 3)", "format": "in vivo", "settings": "30 g ai/a, foliar spray at 2-3 leaves, 30th day", "in_short": "as §1"}, "barnyardgrass [6]": {"tested_on": "barnyardgrass", "assay": "Upland foliar application test (Test 3)", "format": "in vivo", "settings": "30 g ai/a, foliar spray at 2-3 leaves, 30th day", "in_short": "as §1"}, "green foxtail [7]": {"tested_on": "green foxtail", "assay": "Upland foliar application test (Test 3)", "format": "in vivo", "settings": "30 g ai/a, foliar spray at 2-3 leaves, 30th day", "in_short": "as §1"}, "common lambsquarters [8]": {"tested_on": "common lambsquarters", "assay": "Upland foliar application test (Test 3)", "format": "in vivo", "settings": "30 g ai/a, foliar spray at 2-3 leaves, 30th day", "in_short": "as §1"}, "rice": {"tested_on": "rice", "assay": "Treatment of soil under submerged condition, pre-emergence (Test 4), injury", "format": "in vivo", "settings": "30 g ai/a granule, 30 days later", "in_short": "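Wagner pots of soil were seeded or planted with weed seeds or tubers under flooding, then 2–3-leaf rice seedling pairs were transplanted and grown in a greenhouse. One day later, before weed emergence, pots received a granule of the test composition at a predetermined amount. Weed emergence and rice injury were scored 30 days later.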"}, "johnsongrass [9]": {"tested_on": "johnsongrass", "assay": "Upland soil application test (Test 2)", "format": "in vivo", "settings": "30 g ai/a, soil spray before emergence, 30 days later", "in_short": "(§2)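 Steps: fill pots with fertilized upland field soil containing uniformly mixed weed seed; sow crops and cover with 2-3 cm soil; after one day, spray the diluted wettable powder evenly over the soil at 10 l per are; assess at 30 days against untreated controls by dry weight.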"}, "foxtail meadow [10]": {"tested_on": "foxtail meadow", "assay": "Upland soil application test (Test 2)", "format": "in vivo", "settings": "30 g ai/a, soil spray before emergence, 30 days later", "in_short": "as §2"}, "redroot pigweed [11]": {"tested_on": "redroot pigweed", "assay": "Upland soil application test (Test 2)", "format": "in vivo", "settings": "30 g ai/a, soil spray before emergence, 30 days later", "in_short": "as §2"}, "large crabgrass [12]": {"tested_on": "large crabgrass", "assay": "Upland soil application test (Test 2)", "format": "in vivo", "settings": "30 g ai/a, soil spray before emergence, 30 days later", "in_short": "as §2"}, "barnyardgrass [13]": {"tested_on": "barnyardgrass", "assay": "Upland soil application test (Test 2)", "format": "in vivo", "settings": "30 g ai/a, soil spray before emergence, 30 days later", "in_short": "as §2"}, "green foxtail [14]": {"tested_on": "green foxtail", "assay": "Upland soil application test (Test 2)", "format": "in vivo", "settings": "30 g ai/a, soil spray before emergence, 30 days later", "in_short": "as §2"}, "common lambsquarters [15]": {"tested_on": "common lambsquarters", "assay": "Upland soil application test (Test 2)", "format": "in vivo", "settings": "30 g ai/a, soil spray before emergence, 30 days later", "in_short": "as §2"}},
  "data": [
    {"smiles": "COc1cccc(C=CCON=Cc2ccccc2Oc2nc(OC)cc(OC)n2)c1", "note": "[compound 38]", "values": [
      {"measurement": "Inhibitory activity (%) Pea", "setting": "[1]", "result": 0, "unit": "%"},
      {"measurement": "Herbicidal effects Johnsongrass", "setting": "johnsongrass [2]", "result": "5 (0-5 (Death))"},
      {"measurement": "Herbicidal effects Foxtail meadow", "setting": "foxtail meadow [3]", "result": "4 (6-10 (Severe damages))"},
      {"measurement": "Herbicidal effects Redroot pigweed", "setting": "redroot pigweed [4]", "result": "4 (6-10 (Severe damages))"},
      {"measurement": "Herbicidal effects Large crabgrass", "setting": "large crabgrass [5]", "result": "5 (0-5 (Death))"},
      {"measurement": "Herbicidal effects Barnyardgrass", "setting": "barnyardgrass [6]", "result": "5 (0-5 (Death))"},
      {"measurement": "Herbicidal effects Green foxtail", "setting": "green foxtail [7]", "result": "5 (0-5 (Death))"},
      {"measurement": "Herbicidal effects Common lambsquarters", "setting": "common lambsquarters [8]", "result": "4 (6-10 (Severe damages))"},
      {"measurement": "Injury Rice", "setting": "rice", "result": "0 (91-100 (No damages))"},
      {"measurement": "Herbicidal effects Johnsongrass", "setting": "johnsongrass [9]", "result": "5 (0-5 (Death))"},
      {"measurement": "Herbicidal effects Foxtail meadow", "setting": "foxtail meadow [10]", "result": "4 (6-10 (Severe damages))"},
      {"measurement": "Herbicidal effects Redroot pigweed", "setting": "redroot pigweed [11]", "result": "4 (6-10 (Severe damages))"},
      {"measurement": "Herbicidal effects Large crabgrass", "setting": "large crabgrass [12]", "result": "5 (0-5 (Death))"},
      {"measurement": "Herbicidal effects Barnyardgrass", "setting": "barnyardgrass [13]", "result": "5 (0-5 (Death))"},
      {"measurement": "Herbicidal effects Green foxtail", "setting": "green foxtail [14]", "result": "5 (0-5 (Death))"},
      {"measurement": "Herbicidal effects Common lambsquarters", "setting": "common lambsquarters [15]", "result": "4 (6-10 (Severe damages))"}
    ]},
    {"smiles": "COc1cc(OC)nc(Oc2ccccc2C=NOCC=Cc2ccccc2Br)n1", "note": "[compound 40]", "values": [
      {"measurement": "Inhibitory activity (%) Pea", "setting": "[1]", "result": 0, "unit": "%"},
      {"measurement": "Herbicidal effects Johnsongrass", "setting": "johnsongrass [2]", "result": "5 (0-5 (Death))"},
      {"measurement": "Herbicidal effects Foxtail meadow", "setting": "foxtail meadow [3]", "result": "5 (0-5 (Death))"},
      {"measurement": "Herbicidal effects Redroot pigweed", "setting": "redroot pigweed [4]", "result": "5 (0-5 (Death))"},
      {"measurement": "Herbicidal effects Large crabgrass", "setting": "large crabgrass [5]", "result": "4 (6-10 (Severe damages))"},
      {"measurement": "Herbicidal effects Barnyardgrass", "setting": "barnyardgrass [6]", "result": "5 (0-5 (Death))"},
      {"measurement": "Herbicidal effects Green foxtail", "setting": "green foxtail [7]", "result": "4 (6-10 (Severe damages))"},
      {"measurement": "Herbicidal effects Common lambsquarters", "setting": "common lambsquarters [8]", "result": "4 (6-10 (Severe damages))"},
      {"measurement": "Injury Rice", "setting": "rice", "result": "0 (91-100 (No damages))"},
      {"measurement": "Herbicidal effects Johnsongrass", "setting": "johnsongrass [9]", "result": "4 (6-10 (Severe damages))"},
      {"measurement": "Herbicidal effects Foxtail meadow", "setting": "foxtail meadow [10]", "result": "5 (0-5 (Death))"},
      {"measurement": "Herbicidal effects Redroot pigweed", "setting": "redroot pigweed [11]", "result": "5 (0-5 (Death))"},
      {"measurement": "Herbicidal effects Large crabgrass", "setting": "large crabgrass [12]", "result": "4 (6-10 (Severe damages))"},
      {"measurement": "Herbicidal effects Barnyardgrass", "setting": "barnyardgrass [13]", "result": "5 (0-5 (Death))"},
      {"measurement": "Herbicidal effects Green foxtail", "setting": "green foxtail [14]", "result": "4 (6-10 (Severe damages))"},
      {"measurement": "Herbicidal effects Common lambsquarters", "setting": "common lambsquarters [15]", "result": "4 (6-10 (Severe damages))"}
    ]},
    {"smiles": "COc1cc(OC)nc(Oc2ccccc2C=NOCC=Cc2cccc(Cl)c2Cl)n1", "note": "[compound 41]", "values": [
      {"measurement": "Inhibitory activity (%) Pea", "setting": "[1]", "result": 0, "unit": "%"},
      {"measurement": "Herbicidal effects Johnsongrass", "setting": "johnsongrass [2]", "result": "5 (0-5 (Death))"},
      {"measurement": "Herbicidal effects Foxtail meadow", "setting": "foxtail meadow [3]", "result": "4 (6-10 (Severe damages))"},
      {"measurement": "Herbicidal effects Redroot pigweed", "setting": "redroot pigweed [4]", "result": "5 (0-5 (Death))"},
      {"measurement": "Herbicidal effects Large crabgrass", "setting": "large crabgrass [5]", "result": "5 (0-5 (Death))"},
      {"measurement": "Herbicidal effects Barnyardgrass", "setting": "barnyardgrass [6]", "result": "5 (0-5 (Death))"},
      {"measurement": "Herbicidal effects Green foxtail", "setting": "green foxtail [7]", "result": "4 (6-10 (Severe damages))"},
      {"measurement": "Herbicidal effects Common lambsquarters", "setting": "common lambsquarters [8]", "result": "4 (6-10 (Severe damages))"},
      {"measurement": "Injury Rice", "setting": "rice", "result": "0 (91-100 (No damages))"},
      {"measurement": "Herbicidal effects Johnsongrass", "setting": "johnsongrass [9]", "result": "4 (6-10 (Severe damages))"},
      {"measurement": "Herbicidal effects Foxtail meadow", "setting": "foxtail meadow [10]", "result": "4 (6-10 (Severe damages))"},
      {"measurement": "Herbicidal effects Redroot pigweed", "setting": "redroot pigweed [11]", "result": "5 (0-5 (Death))"},
      {"measurement": "Herbicidal effects Large crabgrass", "setting": "large crabgrass [12]", "result": "5 (0-5 (Death))"},
      {"measurement": "Herbicidal effects Barnyardgrass", "setting": "barnyardgrass [13]", "result": "5 (0-5 (Death))"},
      {"measurement": "Herbicidal effects Green foxtail", "setting": "green foxtail [14]", "result": "4 (6-10 (Severe damages))"},
      {"measurement": "Herbicidal effects Common lambsquarters", "setting": "common lambsquarters [15]", "result": "4 (6-10 (Severe damages))"}
    ]},
    {"smiles": "COc1cc(OC)nc(Oc2ccccc2C=NOCC#Cc2ccccc2)n1", "note": "[compound 42]", "values": [
      {"measurement": "Inhibitory activity (%) Pea", "setting": "[1]", "result": 0, "unit": "%"},
      {"measurement": "Herbicidal effects Johnsongrass", "setting": "johnsongrass [2]", "result": "5 (0-5 (Death))"},
      {"measurement": "Herbicidal effects Foxtail meadow", "setting": "foxtail meadow [3]", "result": "5 (0-5 (Death))"},
      {"measurement": "Herbicidal effects Redroot pigweed", "setting": "redroot pigweed [4]", "result": "5 (0-5 (Death))"},
      {"measurement": "Herbicidal effects Large crabgrass", "setting": "large crabgrass [5]", "result": "3 (11-40 (Medium damages))"},
      {"measurement": "Herbicidal effects Barnyardgrass", "setting": "barnyardgrass [6]", "result": "5 (0-5 (Death))"},
      {"measurement": "Herbicidal effects Green foxtail", "setting": "green foxtail [7]", "result": "5 (0-5 (Death))"},
      {"measurement": "Herbicidal effects Common lambsquarters", "setting": "common lambsquarters [8]", "result": "4 (6-10 (Severe damages))"},
      {"measurement": "Injury Rice", "setting": "rice", "result": "0 (91-100 (No damages))"},
      {"measurement": "Herbicidal effects Johnsongrass", "setting": "johnsongrass [9]", "result": "5 (0-5 (Death))"},
      {"measurement": "Herbicidal effects Foxtail meadow", "setting": "foxtail meadow [10]", "result": "5 (0-5 (Death))"},
      {"measurement": "Herbicidal effects Redroot pigweed", "setting": "redroot pigweed [11]", "result": "3 (11-40 (Medium damages))"},
      {"measurement": "Herbicidal effects Large crabgrass", "setting": "large crabgrass [12]", "result": "4 (6-10 (Severe damages))"},
      {"measurement": "Herbicidal effects Barnyardgrass", "setting": "barnyardgrass [13]", "result": "5 (0-5 (Death))"},
      {"measurement": "Herbicidal effects Green foxtail", "setting": "green foxtail [14]", "result": "5 (0-5 (Death))"},
      {"measurement": "Herbicidal effects Common lambsquarters", "setting": "common lambsquarters [15]", "result": "4 (6-10 (Severe damages))"}
    ]}
  ]
}
